Assay results taken from patent US8367720B2 (Panorama Research Inc., priority 2007, dated 2013).
Counter-ions that a name gives are not always drawn. Like-named read-outs stand apart in the source and are kept apart here.

Tests used:
[1] = system: Candida albicans; experiment: Inhibition zone test (holing method); format: cell-based; details: 37° C., 24 h; compounds 0.05 mg/well, nysfungin 0.10 mg/well
Procedure: (§1) After being cultured at 37° C. for 24 h, the sizes of inhibition zones were measured.

[2] = system: rats with STZ-induced diabetes mellitus; experiment: Therapeutical effects on STZ-induced diabetes mellitus in rats; details: Day 0, before treatment
Procedure: 30 Female SD rats, 180-220 g, fasted for 16 h, were subjected to intraperitoneal injection of 60 mg/kg of STZ (purchased from Sigma Company). After 72 h, blood samples were collected from the rats by cutting their tails after fasting 16 h, and blood glucose values were measured by using a blood glucose analyzer (Johnson & Johnson Company). […] Animals were weighed, orbital bleeded, and the sera were separated. According to the instructions of kit (Zhejiang Dongou Biotechnology Co., Ltd.), the contents of triglyceride and total cholesterol were measured. […] The rats of vehicle group were treated with an equivalent volume of solvent (20% DMSO in H2O). After being fasted for 16 h, the rats were weighed, and bleeded for the measurement of blood glucose, triglyceride and total cholesterol. The obtained data were processed by using one-factor analysis of variance (One-way ANOVA) followed by Student's t-test.

[3] = system: L1210 cells; format: cell-based
Procedure: The cells were cultured in an incubator at 37° C., 5% CO2 and saturated humidity. The culture medium was removed, the cells were washed with PBS twice, fixed at −20° C. overnight. Then the cells were centrifuged again, washed with PBS to remove ethanol, cultured with RNase A (200 μg/mL, Sigma) at 37° C. for 1 h, stained with PI (50 μg/mL, Sigma) in dark for 30 min, and detected by using a flow cytometer.

[4] = system: Staphylococcus aureus MRSA 5677; experiment: Inhibition zone test (holing method); format: cell-based; details: 37° C., 24 h; compounds 0.05 mg/well, vancomycin 0.15 mg/well
Procedure: as §1

[5] = system: E. coli; experiment: Inhibition zone test (holing method); format: cell-based; details: 37° C., 24 h; compounds 0.05 mg/well, gentamicin 0.10 mg/well
Procedure: as §1

[6] = system: Pseudomonas aeruginosa; experiment: Inhibition zone test (holing method); format: cell-based; details: 37° C., 24 h; compounds 0.05 mg/well, gentamicin 0.10 mg/well
Procedure: as §1

[7] = system: Bacillus subtilis; experiment: Inhibition zone test (holing method); format: cell-based; details: 37° C., 24 h; compounds 0.05 mg/well, streptomycin 0.15 mg/well
Procedure: as §1

[8] = system: Staphylococcus aureus wild type; experiment: Inhibition zone test (holing method); format: cell-based; details: 37° C., 24 h; compounds 0.05 mg/well, streptomycin 0.15 mg/well
Procedure: as §1

[9] = system: Staphylococcus aureus MRSA 5676; experiment: Inhibition zone test (holing method); format: cell-based; details: 37° C., 24 h; compounds 0.05 mg/well, vancomycin 0.15 mg/well
Procedure: as §1

[10] = system: Pseudomonas aeruginosa; experiment: Measurement of growth curve of Pseudomonas aeruginosa; format: cell-based; details: 10 mM according to FIG. 2 legend
Procedure: Pseudomonas aeruginosa was inoculated in LB medium, and cultured at a constant temperature of 37° C. in a shaker overnight.

[11] = system: L1210 leukemia cells; experiment: In vitro antitumor activity to L1210 leukemia cells (MTT); format: cell-based
Procedure: The cells were cultured in an incubator at 37° C., 5% CO2 and saturated humidity for 48 h. Then 5 mg/mL MTT (20 μL/well) was added and cultured at the same conditions for 4 h, DMSO (150 μL/well) was added, and the (570/630 nm) absorbance (A values) was measured by using micro-plate reader.

[12] = system: MRSA5676; experiment: Test of minimal inhibitory concentration (MIC); format: cell-based, Staphylococcus aureus; details: two-fold dilution, 37° C., 24 h, absorbance 595 nm
[13] = system: MRSA5677; experiment: Test of minimal inhibitory concentration (MIC); format: cell-based, Staphylococcus aureus; details: two-fold dilution, 37° C., 24 h, absorbance 595 nm
[14] = system: Staphylococcus aureus wild type; experiment: Test of minimal inhibitory concentration (MIC); format: cell-based; details: two-fold dilution, 37° C., 24 h, absorbance 595 nm
[15] = system: secretion of pyocyanin by Pseudomonas aeruginosa; experiment: Measurement of pyocyanin; format: cell-based; details: 18 h culture, A520; Andro, AL-1 1 mM; Chuanhuning, Yanhuning, Lianbizhi 10 mM (FIG. 3)
Procedure: Pseudomonas aeruginosa was inoculated in LB medium, then cultured at a constant temperature of 37° C. in a shaker overnight. […] The supernatant was taken and extracted in turn with chloroform and 0.2 N HCl, and A520 values were measured (Zielinshi et al., Biol. Chem. 1991, 266, 9754-9763; May et al., Clin. Microbiology Rev. 1991, 4, 191-206).

[16] = system: extracellular protease of Pseudomonas aeruginosa; experiment: Measurement of extracellular protease; format: cell-based; details: azo-casein, A440; Andro, AL-1 1 mM; Chuanhuning, Yanhuning, Lianbizhi 10 mM (FIG. 4)
Procedure: Pseudomonas aeruginosa was inoculated in LB liquid, and cultured at a constant temperature of 37° C. in a shaker overnight. […] After the bacterial liquids were cultured simultaneously at 37° C. for 6 h and centrifuged, supernatant 100 μL was taken, azo-casein 5 mg was added, […] and CaCl2 10 mM were added, and then they were shaken for reaction at 37° C. for 6 h, and the reaction was terminated by adding EDTA-Na. The A440 values of the supernatants were measured (Zielinshi et al., Biol. Chem. 1991, 266, 9754-9763; May et al., Clin. Microbiology Rev. 1991, 4, 191-206).

[17] = system: glutathione; details: after injection to animals; especially lung, liver and kidney cells; cited from earlier work
[18] = system: NF-kappaB; details: 0.5 mmol/L, HAEC pretreated 48 h, TNF-α 10 U/ml; cited from earlier work
[19] = system: suspended Pseudomonas aeruginosa; experiment: Experiment of combination with antibiotics; format: cell-based; details: Pseudomonas aeruginosa cultured 15 h, OD600; ciprofloxacin 0.017 μg/mL, erythromycin 3.75 μg/mL, Andro 350 μg/mL, AL-1 538 μg/mL (1 μmol/mL)
[20] = L1210 cells, 48 h, MTT, read-out: IC50

Compound | Inhibition zone diameter, Candida albicans [1] | Inhibition zone diameter, Staphylococcus aureus MRSA 5677 [4] | Inhibition zone diameter, E. coli [5] | Inhibition zone diameter, Pseudomonas aeruginosa [6] | Inhibition zone diameter, Bacillus Subtilis [7] | Inhibition zone diameter, Staphylococcus aureus Wild type [8] | Inhibition zone diameter, Staphylococcus aureus MRSA 5676 [9] | further results
Nysfungin | 10.00 ± 1.00 mm |  |  |  |  |  |  | 
COc1ccc(Cl)cc1C(=O)NCCc1ccc(S(=O)(=O)NC(=O)NC2CCCCC2)cc1 [Glibenclamide] |  |  |  |  |  |  |  | Blood glucose [2]: 26.9 ± 1.56 mmol/L; Body weight [2]: 201 ± 3.61 g; Total cholesterol [2]: 2.57 ± 1.09 mmol/L; Total triglyceride [2]: 7.84 ± 2.21 mmol/L
COc1cccc2c1C(=O)c1c(O)c3c(c(O)c1C2=O)C[C@@](O)(C(=O)CO)C[C@@H]3O[C@H]1C[C@H](N)[C@H](O)[C@H](C)O1 [Dox, doxorubicin hydrochloride] |  |  |  |  |  |  |  | effect on cell cycle of L1210 cells ([3]; concentration not given): arrested L1210 cells at G2 phase
potassium dehydroandrograpolide succinate [Chuanhuning] | ^b (incompetence (inhibition zone diameter <4 mm)) | ^b (incompetence (inhibition zone diameter <4 mm)) | ^b (incompetence (inhibition zone diameter <4 mm)) | ^b (incompetence (inhibition zone diameter <4 mm)) | ^b (incompetence (inhibition zone diameter <4 mm)) | ^b (incompetence (inhibition zone diameter <4 mm)) | ^b (incompetence (inhibition zone diameter <4 mm)) | inhibition of the growth of Pseudomonas aeruginosa (growth curve, A600) [10]: no direct inhibition effect; IC50 [11, 20]: > 100 µM
CN[C@H](CC(C)C)C(=O)N[C@H]1C(=O)N[C@@H](CC(N)=O)C(=O)N[C@H]2C(=O)N[C@H]3C(=O)N[C@H](C(=O)N[C@H](C(=O)O)c4cc(O)cc(O)c4-c4cc3ccc4O)[C@H](O)c3ccc(c(Cl)c3)Oc3cc2cc(c3O[C@@H]2O[C@H](CO)[C@@H](O)[C@H](O)[C@H]2O[C@H]2C[C@](C)(N)[C@H](O)[C@H](C)O2)Oc2ccc(cc2Cl)[C@H]1O [Vancomycin] |  | 21.0 ± 1.00 mm |  |  |  |  | 20.0 ± 1.00 mm | MIC, MRSA5676 [12]: 1.56; MIC, MRSA5677 [13]: 3.13; MIC, Wild type [14]: 1.56
C=C1CCC2[C@@](C)(CC[C@@H](O)[C@@]2(C)CO)C1CC(C1=CCOC1=O)S(=O)(=O)[O-].[Na+] (some centres unmarked) [Lianbizhi, andrographolide sodium bisulfite] | ^b (incompetence (inhibition zone diameter <4 mm)) | ^b (incompetence (inhibition zone diameter <4 mm)) | ^b (incompetence (inhibition zone diameter <4 mm)) | ^b (incompetence (inhibition zone diameter <4 mm)) | ^b (incompetence (inhibition zone diameter <4 mm)) | ^b (incompetence (inhibition zone diameter <4 mm)) | ^b (incompetence (inhibition zone diameter <4 mm)) | inhibition of the growth of Pseudomonas aeruginosa (growth curve, A600) [10]: no direct inhibition effect; IC50 ([11]; Mus musculus, L1210, 48 h): > 100 µM
C=C1CCC2[C@](C)(CO)[C@H](O)CC[C@@]2(C)[C@@H]1C/C=C1/C(=O)OCC1OC(=O)/C=C/c1ccc([N+](=O)[O-])cc1 (some centres unmarked) [ANO, 14-[4′-nitrocinnamyl]-3,19-dihydroxy-andrographolide] | ^b (incompetence (inhibition zone diameter <4 mm)) | 6.4 ± 0.42 mm | ^b (incompetence (inhibition zone diameter <4 mm)) | ^b (incompetence (inhibition zone diameter <4 mm)) | ^b (incompetence (inhibition zone diameter <4 mm)) | 8.3 ± 0.99 mm | 8.1 ± 0.64 mm | MIC, MRSA5676 [12]: 62.5; inhibition of the secretion of pyocyanin [15]: AL-1>Andro>ANO; effect on cell cycle / apoptosis of L1210 cells ([3]; 10 μM, after 12 h): arrest L1210 cells at G1 prophase; inhibition of the production/activity of extracellular protease [16]: AL-1>ANO>Andro; MIC, MRSA5677 [13]: 25; MIC, Wild type [14]: 62.5; IC50 ([11]; Mus musculus, L1210 cells, 48 h, MTT, read-out: IC50): 9.96 ± 2.25 µM
potassium sodium dehydroandrographolide succinate [Yanhuning] | ^b (incompetence (inhibition zone diameter <4 mm)) | ^b (incompetence (inhibition zone diameter <4 mm)) | ^b (incompetence (inhibition zone diameter <4 mm)) | ^b (incompetence (inhibition zone diameter <4 mm)) | ^b (incompetence (inhibition zone diameter <4 mm)) | ^b (incompetence (inhibition zone diameter <4 mm)) | ^b (incompetence (inhibition zone diameter <4 mm)) | inhibition of the growth of Pseudomonas aeruginosa (growth curve, A600) [10]: no direct inhibition effect; IC50 [11, 20]: > 100 µM
[H]/N=C(/N)N[C@H]1[C@H](O)[C@@H](O)[C@H](O[C@@H]2O[C@@H](C)[C@](O)(C=O)[C@H]2O[C@@H]2O[C@@H](CO)[C@H](O)[C@@H](O)[C@@H]2NC)[C@@H](N/C(N)=N\[H])[C@@H]1O [Streptomycin] |  |  |  |  | 22.1 ± 1.00 mm | 21.2 ± 1.00 mm |  | 
O=C(O)CCCCC1CCSS1 (stereo not drawn) [lipoic acid, Alpha-lipoic acid] |  |  |  |  |  |  |  | increase of glutathione level [17]: 30%-70%; inhibition of NF-kappaB activity induced by TNF-α [18]: 81%
Gentamicin |  |  | 20.1 ± 1.00 mm | 21.0 ± 1.00 mm |  |  |  | 
CC[C@H]1OC(=O)[C@H](C)[C@@H](O[C@H]2C[C@@](C)(OC)[C@@H](O)[C@H](C)O2)[C@H](C)[C@@H](O[C@@H]2O[C@H](C)C[C@H](N(C)C)[C@H]2O)[C@](C)(O)C[C@@H](C)C(=O)[C@H](C)[C@@H](O)[C@]1(C)O [Erythromycin] |  |  |  |  |  |  |  | Survival Rate [19]: 93.9%
